From the supplement of paper PMC10307832

compound: C[C@@H](Oc1cc(-c2cnn(C3CCNCC3)c2)cnc1N)c1c(Cl)ccc(F)c1Cl [Crizotinib] + CS(=O)(=O)N1CCN(Cc2cc3nc(-c4cccc5[nH]ncc45)nc(N4CCOCC4)c3s2)CC1 [Pictilisib] (partner 1 µM); assay: relative viability (nuclei count vs DMSO), 5 days (fraction); higher = more cells survive; conditions: first compound 0.01 µM
Method in brief: (§1)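 Relative viability divides the nuclei count in treated wells by that in vehicle wells. Lung cancer cell lines were seeded in 1536-well plates, dosed by pin tool the next day, and fixed and stained after 5 days in one step with final 0.05% Triton X-100, 1% formaldehyde and 1 ug/ml Hoechst. Dosing was a single drug or a fixed anchor-drug dose plus five library-drug doses (not always all listed) in √10 steps, and values are medians of duplicate plates imaged at 4×.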

Cell Line | relative viability
NCI-H1944 | 0.322
NCI-H1975 | 0.28
NCI-H1993 | 0.682
NCI-H2009 | 0.607
NCI-H2023 | 0.225
NCI-H2085 | 0.357
NCI-H2087 | 0.693
NCI-H2126 | 0.456
NCI-H2170 | 0.316
NCI-H2228 | 0.392
NCI-H2347 | 0.624
NCI-H2405 | 0.457

same assay, conditions: first compound 0.03162 µM

Cell Line | relative viability
NCI-H23 | 0.539
NCI-H322M | 0.522
NCI-H358 | 0.354
NCI-H441 | 0.395
NCI-H460 | 0.349
NCI-H520 | 0.333
NCI-H596 | 0.378
NCI-H647 | 0.393
NCI-H650 | 0.893
NCI-H661 | 0.349
NCI-H727 | 0.389
NCI-H838 | 0.5
NCI-H1355 | 0.52
NCI-H1395 | 0.557
NCI-H1437 | 0.461
NCI-H1650 | 0.584
NCI-H1651 | 0.65

Cell Line | relative viability
NCI-H1666 | 0.484
NCI-H1734 | 0.406
NCI-H1755 | 0.485
NCI-H1915 | 0.88
NCI-H1944 | 0.341
NCI-H1975 | 0.294
NCI-H1993 | 0.823
NCI-H2009 | 0.83
NCI-H2023 | 0.232
NCI-H2085 | 0.484
NCI-H2087 | 0.909
NCI-H2126 | 0.5
NCI-H2170 | 0.315
NCI-H2228 | 0.308
NCI-H2347 | 0.69
NCI-H2405 | 0.526

same assay, conditions: first compound 0.1 µM

Cell Line | relative viability
NCI-H23 | 0.505
NCI-H322M | 0.493
NCI-H358 | 0.35
NCI-H441 | 0.432
NCI-H460 | 0.302
NCI-H520 | 0.303
NCI-H596 | 0.354
NCI-H647 | 0.459
NCI-H650 | 0.865
NCI-H661 | 0.383
NCI-H727 | 0.561
NCI-H838 | 0.483
NCI-H1355 | 0.413
NCI-H1395 | 0.73
NCI-H1437 | 0.389
NCI-H1650 | 0.573
NCI-H1651 | 0.514

Cell Line | relative viability
NCI-H1666 | 0.325
NCI-H1734 | 0.381
NCI-H1755 | 0.444
NCI-H1915 | 1.01
NCI-H1944 | 0.328
NCI-H1975 | 0.308
NCI-H1993 | 0.761
NCI-H2009 | 0.799
NCI-H2023 | 0.189
NCI-H2085 | 0.409
NCI-H2087 | 0.953
NCI-H2126 | 0.481
NCI-H2170 | 0.286
NCI-H2228 | 0.362
NCI-H2347 | 0.551
NCI-H2405 | 0.419

same assay, conditions: first compound 0.3162 µM

Cell Line | relative viability
NCI-H322M | 0.585
NCI-H358 | 0.27
NCI-H441 | 0.34
NCI-H460 | 0.309
NCI-H520 | 0.319
NCI-H596 | 0.414
NCI-H650 | 0.799
NCI-H661 | 0.378
NCI-H727 | 0.285
NCI-H838 | 0.426
NCI-H1355 | 0.297
NCI-H1395 | 0.906
NCI-H1437 | 0.375
NCI-H1650 | 0.535
NCI-H1651 | 0.559
NCI-H1666 | 0.553
NCI-H1755 | 0.309
NCI-H1944 | 0.344
NCI-H1975 | 0.344
NCI-H1993 | 0.667
NCI-H2009 | 0.688
NCI-H2023 | 0.192
NCI-H2085 | 0.437
NCI-H2087 | 0.42
NCI-H2126 | 0.429
NCI-H2170 | 0.277
NCI-H2228 | 0.164
NCI-H2347 | 0.731
NCI-H2405 | 0.37

same assay, conditions: first compound 1 µM

Cell Line | relative viability
NCI-H23 | 0.541
NCI-H322M | 0.52
NCI-H358 | 0.325
NCI-H441 | 0.443
NCI-H460 | 0.314
NCI-H520 | 0.251
NCI-H596 | 0.367
NCI-H647 | 0.269
NCI-H650 | 0.783
NCI-H661 | 0.36
NCI-H727 | 0.29
NCI-H838 | 0.496
NCI-H1355 | 0.434
NCI-H1395 | 0.542
NCI-H1437 | 0.439
NCI-H1650 | 0.559
NCI-H1651 | 0.572

Cell Line | relative viability
NCI-H1666 | 0.3
NCI-H1734 | 0.39
NCI-H1755 | 0.437
NCI-H1915 | 0.952
NCI-H1944 | 0.343
NCI-H1975 | 0.266
NCI-H1993 | 0.748
NCI-H2009 | 0.782
NCI-H2023 | 0.217
NCI-H2085 | 0.451
NCI-H2087 | 0.943
NCI-H2126 | 0.48
NCI-H2170 | 0.292
NCI-H2228 | 0.0922
NCI-H2347 | 1.05
NCI-H2405 | 0.356

compound: CC(C)C[C@H](NC(=O)[C@H](CCc1ccccc1)NC(=O)CN1CCOCC1)C(=O)N[C@@H](Cc1ccccc1)C(=O)N[C@@H](CC(C)C)C(=O)[C@@]1(C)CO1 [Carfilzomib] + COc1cccc2cc(-c3nc([C@H]4CC[C@H](C(=O)O)CC4)n4ncnc(N)c34)[nH]c12 [OSI-027] (partner 0.5 µM); assay: as above; conditions: first compound 0.001 µM
Method in brief: as §1

Cell Line | relative viability
NCI-H23 | 0.592
NCI-H322M | 0.592
NCI-H358 | 0.638
NCI-H441 | 0.649
NCI-H460 | 0.647
NCI-H520 | 0.19
NCI-H596 | 0.657
NCI-H647 | 0.562
NCI-H661 | 0.698
NCI-H727 | 0.618
NCI-H838 | 0.367
NCI-H1355 | 0.411
NCI-H1395 | 0.526
NCI-H1437 | 0.876
